# Laboratory results: patent publication US20240287138A1, “CYCLIC PEPTIDES FOR INHIBITING TNF RECEPTOR 1 ACTIVITY” (Merck Sharp & Dohme LLC, priority 2023, published 2024)
# Numbered stars: 1 amine (or outer) side, 2 acyl side, 3 side chain; on linkers, the order of the positions; unused ones are H or OH. Square brackets hold non-standard residues; d marks the D form. Peptide text beside a SMILES is read from it. * marks the point of attachment. Trp(βS-Me,7-OMe) = COc1cccc2c([C@H](C)[C@H](N)C(=O)O)c[nH]c12; Phe(4-SO2NH2) = N[C@@H](Cc1ccc(S(N)(=O)=O)cc1)C(=O)O; Phe(2-F,4-COOH) = N[C@@H](Cc1ccc(C(=O)O)cc1F)C(=O)O; dPro(trans-4-NMe2) = CN(C)[C@@H]1CN[C@@H](C(=O)O)C1; Trp(7-CN) = N#Cc1cccc2c(C[C@H](N)C(=O)O)c[nH]c12; Phe(3-CONH2) = NC(=O)c1cccc(C[C@H](N)C(=O)O)c1; Phe(4-CONH2) = NC(=O)c1ccc(C[C@H](N)C(=O)O)cc1; Phe(4-COOH) = N[C@@H](Cc1ccc(C(=O)O)cc1)C(=O)O; Trp(7-aza) = N[C@@H](Cc1c[nH]c2ncccc12)C(=O)O; Pip(5R-OH) = O=C(O)[C@@H]1CC[C@@H](O)CN1; X1 = O=C([C@@H]1CC[C@H](N[*:1])C1)[*:2]; Gly(Nα-CH2CH2CONH2) = NC(=O)CCNCC(=O)O; Pip(4-aza) = O=C(O)[C@@H]1CNCCN1; 4Pal = N[C@@H](Cc1ccncc1)C(=O)O; dHyp = O=C(O)[C@H]1C[C@H](O)CN1; aThr = C[C@H](O)[C@H](N)C(=O)O; Ahp(2) = CCCCC[C@H](N)C(=O)O; αMeS = C[C@](N)(CO)C(=O)O; Carboxymethyl = O=C(O)C*; Nle = CCCC[C@H](N)C(=O)O; Sar = CNCC(=O)O
# Experiments:
# [1] = molecular target: T1, human TNFR1 extracellular domain (ECD) protein (Homo sapiens, UniProt P19438); assay: SPR binding affinity to captured human TNFR1 ECD
# T1 construct: HRV 3C protease cleavage site (C); 6His (C, cleaved yes); made in house; host or cells: Sf21 insect cells (baculovirus), secreted
# T1 sequence (P19438 30-211): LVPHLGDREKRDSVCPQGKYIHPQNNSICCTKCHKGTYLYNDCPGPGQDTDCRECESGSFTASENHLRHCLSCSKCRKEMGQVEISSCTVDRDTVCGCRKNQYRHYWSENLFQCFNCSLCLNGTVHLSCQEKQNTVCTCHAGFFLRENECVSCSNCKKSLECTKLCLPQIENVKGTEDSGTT
# How it was run: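 Read-out: kon, koff and derived affinity from SPR response units. Human TNFR1 and TNFR2 ECD, Avi-tag biotinylated with BirA, captured on a streptavidin surface; peptides injected under laminar flow in HEPES-saline with EDTA, P20 and 2% DMSO.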
# [2] = molecular target: T2, TNFα-induced NF-κB signal transduction pathway (TNFR1 signaling) in THP-1 cells (Homo sapiens, UniProt P19438); assay: THP-1 Lucia NF-κB reporter cell assay, inhibition of TNFα-induced NF-κB signaling; assay type: cell-based; conditions: THP-1 NF-κB Lucia reporter cells, 10 ng/mL TNFα, 16-18 h, secreted luciferase; read-out: THP-1 IC50
# T2 sequence (P19438 30-455): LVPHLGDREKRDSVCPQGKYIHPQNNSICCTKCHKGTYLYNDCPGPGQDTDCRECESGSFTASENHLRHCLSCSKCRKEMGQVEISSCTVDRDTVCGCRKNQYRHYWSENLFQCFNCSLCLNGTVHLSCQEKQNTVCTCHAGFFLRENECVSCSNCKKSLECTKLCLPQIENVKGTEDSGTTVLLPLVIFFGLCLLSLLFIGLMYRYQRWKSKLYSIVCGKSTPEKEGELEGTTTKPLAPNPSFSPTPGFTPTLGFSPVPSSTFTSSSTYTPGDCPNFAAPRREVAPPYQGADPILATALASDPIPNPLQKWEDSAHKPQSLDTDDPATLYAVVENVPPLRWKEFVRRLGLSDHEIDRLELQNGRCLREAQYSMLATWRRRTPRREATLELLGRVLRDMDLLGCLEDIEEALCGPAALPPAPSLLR
# How it was run: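 Inhibition of TNFR1-driven NF-κB activation was measured as luminescence of secreted reporter luciferase following overnight (16-18 h) stimulation with 10 ng/mL TNFα.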
SMILES,Kd [1] [nM],IC50 [2] [nM]
"CCCC[C@@H]1NC(=O)[C@@H]2CC[C@@H](C2)NC(=O)[C@H]([C@@H](C)c2c[nH]c3c(OC)cccc23)NC(=O)CN(C)C(=O)[C@H](Cc2ccc(C(N)=O)cc2)NC(=O)[C@H](Cc2ccc(C(N)=O)cc2)NC(=O)[C@](C)(CO)NC(=O)[C@H](Cc2c[nH]c3c(C#N)cccc23)NC(=O)[C@H](Cc2ccc(C(=O)O)cc2)NC(=O)[C@H]([C@H](C)O)NC(=O)[C@H]2C[C@H](O)CN2C(=O)[C@H](Cc2c[nH]c3ncccc23)NC(=O)[C@@H]2CC[C@@H](O)CN2C(=O)[C@H](Cc2ccncc2)NC1=O [SEQ ID NO. 122] (cyclo([4Pal][Pip(5R-OH)][Trp(7-aza)][dHyp][aThr][Phe(4-COOH)][Trp(7-CN)][αMeS][Phe(4-CONH2)][Phe(4-CONH2)][Sar][Trp(βS-Me,7-OMe)][X1][Nle]))",0.04,0.9
"CCCCC[C@@H]1NC(=O)[C@@H]2CC[C@@H](C2)NC(=O)[C@H]([C@@H](C)c2c[nH]c3c(OC)cccc23)NC(=O)CN(C)C(=O)[C@H](Cc2cccc(C(N)=O)c2)NC(=O)[C@H](Cc2ccc(C(N)=O)cc2)NC(=O)[C@](C)(CO)NC(=O)[C@H](Cc2c[nH]c3c(C#N)cccc23)NC(=O)[C@H](Cc2ccc(C(=O)O)cc2)NC(=O)[C@H](CC(N)=O)NC(=O)[C@H]2C[C@H](N(C)C)CN2C(=O)[C@H](Cc2c[nH]c3ccccc23)NC(=O)[C@@H]2CC[C@@H](O)CN2C(=O)[C@H](Cc2ccncc2)NC1=O [SEQ ID NO. 128] (cyclo([4Pal][Pip(5R-OH)]W[dPro(trans-4-NMe2)]N[Phe(4-COOH)][Trp(7-CN)][αMeS][Phe(4-CONH2)][Phe(3-CONH2)][Sar][Trp(βS-Me,7-OMe)][X1][Ahp(2)]))",0.02,0.8
"CCCC[C@@H]1NC(=O)[C@@H]2CC[C@@H](C2)NC(=O)[C@H]([C@@H](C)c2c[nH]c3c(OC)cccc23)NC(=O)CN(C)C(=O)[C@H](Cc2ccc(C(=O)O)cc2)NC(=O)[C@H](Cc2ccc(C(N)=O)cc2)NC(=O)[C@](C)(CO)NC(=O)[C@H](Cc2c[nH]c3c(C#N)cccc23)NC(=O)[C@H](Cc2ccc(C(=O)O)cc2)NC(=O)[C@H](CC(N)=O)NC(=O)CN(CCC(N)=O)C(=O)[C@H](Cc2c[nH]c3ccccc23)NC(=O)[C@@H]2CC[C@@H](O)CN2C(=O)[C@H](Cc2ccncc2)NC1=O [SEQ ID NO. 130] (cyclo([4Pal][Pip(5R-OH)]W[Gly(Nα-CH2CH2CONH2)]N[Phe(4-COOH)][Trp(7-CN)][αMeS][Phe(4-CONH2)][Phe(4-COOH)][Sar][Trp(βS-Me,7-OMe)][X1][Nle]))",0.06,0.7
"CCCC[C@@H]1NC(=O)[C@@H]2CC[C@@H](C2)NC(=O)[C@H]([C@@H](C)c2c[nH]c3c(OC)cccc23)NC(=O)CN(C)C(=O)[C@H](Cc2ccc(C(=O)O)cc2F)NC(=O)[C@H](Cc2ccc(S(N)(=O)=O)cc2)NC(=O)[C@](C)(CO)NC(=O)[C@H](Cc2c[nH]c3c(C#N)cccc23)NC(=O)[C@H](Cc2ccc(C(=O)O)cc2F)NC(=O)[C@H](CC(N)=O)NC(=O)[C@H]2C[C@H](OCC(=O)O)CN2C(=O)[C@H](Cc2c[nH]c3ncccc23)NC(=O)[C@@H]2CC[C@@H](O)CN2C(=O)[C@H](Cc2ccncc2)NC1=O [SEQ ID NO. 134] (cyclo([4Pal][Pip(5R-OH)][Trp(7-aza)][dHyp](Carboxymethyl)N[Phe(2-F,4-COOH)][Trp(7-CN)][αMeS][Phe(4-SO2NH2)][Phe(2-F,4-COOH)][Sar][Trp(βS-Me,7-OMe)][X1][Nle]))",0.05,0.4
"CCCCC[C@@H]1NC(=O)[C@@H]2CC[C@@H](C2)NC(=O)[C@H]([C@@H](C)c2c[nH]c3c(OC)cccc23)NC(=O)CN(C)C(=O)[C@H](Cc2ccc(C(N)=O)cc2)NC(=O)[C@H](Cc2ccc(C(N)=O)cc2)NC(=O)[C@](C)(CO)NC(=O)[C@H](Cc2c[nH]c3c(C#N)cccc23)NC(=O)[C@H](Cc2ccc(C(=O)O)cc2)NC(=O)[C@H](CC(N)=O)NC(=O)[C@H]2C[C@H](OCC(=O)O)CN2C(=O)[C@H](Cc2c[nH]c3ccccc23)NC(=O)[C@@H]2CNCCN2C(=O)[C@H](Cc2ccncc2)NC1=O [SEQ ID NO. 140] (cyclo([4Pal][Pip(4-aza)]W[dHyp](Carboxymethyl)N[Phe(4-COOH)][Trp(7-CN)][αMeS][Phe(4-CONH2)][Phe(4-CONH2)][Sar][Trp(βS-Me,7-OMe)][X1][Ahp(2)]))",0.05,0.5
